Assay results reported in PMC4636954 (Journal of ethnopharmacology, 2015).
Like-named read-outs stand apart in the source and are kept apart here.

Columns and labels:
[1] = target: κ opioid receptor (Homo sapiens, UniProt P41145); test: κ opioid competitive radioligand binding; details: for Opioid receptor displacement (%) κ: Tested at 10 µM
[2] = target: T1, μ opioid receptor (Homo sapiens, UniProt P35372); test: μ opioid competitive radioligand binding; details: for Opioid receptor displacement (%) μ: Tested at 10 µM
[3] = target: T2, δ opioid receptor (Homo sapiens, UniProt P41143); test: δ opioid competitive radioligand binding; details: for Opioid receptor displacement (%) δ: Tested at 10 µM
[4] = tested on: Adult male Swiss Webster mice; test: Mouse tetrad assay; details: for Catalepsy Latency / Hotplate Latency (% MPE) / Tail-Flick Latency (% MPE) / Rectal temperature (°C): 30 min post-injection; for Rectal temperature (°C): change in core body temperature
[5] = target: T2, δ opioid receptor; test: In vitro GTPγS functional assay, δ-opioid; assay type: biochemical
[6] = target: T1, μ opioid receptor; test: In vitro GTPγS functional assay, μ-opioid; assay type: biochemical
[7] = ip, dose not stated or 'lower doses' (10–100 mg/kg tested)

Molecule: Oc1ccc(CC2NCCc3cc(O)c(O)cc32)cc1 (racemic) [Compound 11, (±)-higenamine]
- Opioid receptor displacement (%) κ [1]: did not show any significant displacements
- Opioid receptor displacement (%) μ [2]: did not show any significant displacements
- Opioid receptor displacement (%) δ [3]: did not show any significant displacements

Molecule: COc1cc2c3c(c1OC)-c1ccccc1C[C@H]3N(C)CC2 [Compound 1, nuciferine]
- Catalepsy Latency ([4]; 10 mg/kg ip): 3.875 ± 2.32 s
- Hotplate Latency (% MPE) ([4]; 10 mg/kg ip): 6.99 ± 2.61 % MPE
- Tail-Flick Latency (% MPE) ([4]; 10 mg/kg ip): 11.69 ± 6.074 % MPE
- Rectal temperature (°C) ([4]; 10 mg/kg ip): −0.49 ± 0.31 °C
- Catalepsy Latency ([4]; 30 mg/kg ip): 1.750 ± 0.62 s
- Hotplate Latency (% MPE) ([4]; 30 mg/kg ip): 3.69 ± 3.01 % MPE
- Tail-Flick Latency (% MPE) ([4]; 30 mg/kg ip): 18.43 ± 10.50 % MPE
- Rectal temperature (°C) ([4]; 30 mg/kg ip): −0.91 ± 0.31 °C
- Catalepsy Latency ([4]; 75 mg/kg ip): 3.500 ± 1.07 s
- Hotplate Latency (% MPE) ([4]; 75 mg/kg ip): 0.68 ± 2.73 % MPE
- Tail-Flick Latency (% MPE) ([4]; 75 mg/kg ip): 19.45 ± 6.16 % MPE
- Rectal temperature (°C) ([4]; 75 mg/kg ip): −1.68 ± 0.38 °C
- Catalepsy Latency ([4]; 100 mg/kg ip): 1.500 ± 0.27 s
- Hotplate Latency (% MPE) ([4]; 100 mg/kg ip): 21.78 ± 7.16 % MPE
- Tail-Flick Latency (% MPE) ([4]; 100 mg/kg ip): 14.14 ± 15.52 % MPE
- Rectal temperature (°C) ([4]; 100 mg/kg ip): −3.8 ± 0.57 °C
- Behavioral effects in tetrad assay (in words) ([4]; 100 mg/kg/ip): only decreased locomotion and hypothermia at the same dose, but failed to display catalepsy and antinociceptive activity
- Behavioral effects in tetrad assay (in words) [4, 7]: failed to show any cataleptic effect or toxicity in the form of tremors and convulsions

Molecule: COc1cc2c(cc1OC)C(Cc1ccc(O)cc1)N(C)CC2 (stereo not shown) [Compound 4, armepavine]
- Ki ([1]; read-out: κ Ki (µM) ± SEM): 13 ± 1.4 µM
- Ki ([2]; read-out: μ Ki (µM) ± SEM): 2.7 ± 0.8 µM
- Ki ([3]; read-out: δ Ki (µM) ± SEM): 23.8 ± 3.7 µM

Molecule: COc1cc2c(cc1O)[C@@H](Cc1ccc(O)cc1)N(C)CC2 [Compound 6, N-methylcoclaurine]
- Ki ([1]; read-out: κ Ki (µM) ± SEM): 0.9 ± 0.1 µM
- Ki ([2]; read-out: μ Ki (µM) ± SEM): 4 ± 0.5 µM
- Ki ([3]; read-out: δ Ki (µM) ± SEM): 20.1 ± 3.1 µM

Molecule: COc1cc2c(cc1O)C(Cc1ccc(O)cc1)NCC2 (stereo not shown) [Compound 7, coclaurine]
- Ki [1]: 2.2 ± 0.2 µM
- Catalepsy Latency ([4]; 10 mg/kg ip): 1.25 ± 0.25 s
- Hotplate Latency (% MPE) ([4]; 10 mg/kg ip): 10.15 ± 4.45 % MPE
- Tail-Flick Latency (% MPE) ([4]; 10 mg/kg ip): 16.57 ± 7.23 % MPE
- Rectal temperature (°C) ([4]; 10 mg/kg ip): 0.17 ± 0.08 °C
- Catalepsy Latency ([4]; 30 mg/kg ip): 2.37 ± 0.59 s
- Hotplate Latency (% MPE) ([4]; 30 mg/kg ip): 5.46 ± 5.05 % MPE
- Tail-Flick Latency (% MPE) ([4]; 30 mg/kg ip): 1.43 ± 6.95 % MPE
- Rectal temperature (°C) ([4]; 30 mg/kg ip): 0.1 ± 0.15 °C
- Catalepsy Latency ([4]; 75 mg/kg ip): 1.75 ± 0.41 s
- Hotplate Latency (% MPE) ([4]; 75 mg/kg ip): 15.49 ± 3.57 % MPE
- Tail-Flick Latency (% MPE) ([4]; 75 mg/kg ip): 13.95 ± 5.01 % MPE
- Rectal temperature (°C) ([4]; 75 mg/kg ip): −0.39 ± 0.05 °C
- Catalepsy Latency ([4]; 100 mg/kg ip): 1.25 ± 0.25 s
- Hotplate Latency (% MPE) ([4]; 100 mg/kg ip): 6.08 ± 1.9 % MPE
- Tail-Flick Latency (% MPE) ([4]; 100 mg/kg ip): 10.07 ± 3.31 % MPE
- Rectal temperature (°C) ([4]; 100 mg/kg ip): −0.58 ± 0.23 °C
- Behavioral effects in tetrad assay (in words) [4, 7]: did not influence any significant behavioral effects with the exception of weak locomotor activity
- Ki [2]: 5 ± 0.7 µM
- Ki [3]: 21.1 ± 2 µM

Molecule: COc1ccc(C[C@@H]2c3cc(Oc4cc(C[C@@H]5c6cc(OC)c(OC)cc6CCN5C)ccc4O)c(OC)cc3CCN2C)cc1 [Compound 10, neferine]
- Ki [1]: 3.3 ± 0.4 µM
- EC50 [5]: 7.9 ± 2.1 µM
- EC50 [6]: > 21 µM
- Functional character at μ opioid receptor by GTPγS assay ([6]; in words): weak μ partial agonist
- Ki [2]: 1.8 ± 0.2 µM
- Ki [3]: 0.7 ± 0.1 µM

Molecule: COc1ccc(C[C@@H]2c3cc(OC)c(OC)cc3CCN2C)cc1 [Compound 12, 4´-O-methylarmepavine]
- Opioid receptor displacement (%) κ [1]: did not show any significant displacements
- Opioid receptor displacement (%) μ [2]: did not show any significant displacements
- Opioid receptor displacement (%) δ [3]: did not show any significant displacements

Molecule: COc1ccc(CC2c3cc(OC)c(OC)cc3CCN2C)cc1 (stereo not shown) [Compound 13, 4´,7-di-O-methylarmepavine]
- Opioid receptor displacement (%) κ [1]: did not show any significant displacements
- Opioid receptor displacement (%) μ [2]: did not show any significant displacements
- Opioid receptor displacement (%) δ [3]: did not show any significant displacements

Molecule: CCCCC/C=C\C/C=C\CCCCCCCC(=O)O [Linoleic acid (LA), linoleic acid]
- Ki [3]: 14.5 ± 2.4 µM

Molecule: CCCCCCCCCCCCCCCC(=O)O [Palmitic acid (PA), palmitic acid]
- Ki [3]: > 21.1 µM

Molecule: O-methylcoclaurine [Compound 5]
- Ki ([1]; read-out: κ Ki (µM) ± SEM): 3.5 ± 0.3 µM
- Ki ([2]; read-out: μ Ki (µM) ± SEM): 2 ± 0.3 µM
- Ki ([3]; read-out: δ Ki (µM) ± SEM): 22.6 ± 3.9 µM
